Measured values reported in PubChem BioAssay AID651569 (Sanford-Burnham Center for Chemical Genomics, 2012).
The source made the active and inactive calls. The rule behind the calls is not given here.

system: luminescent cytotoxicity (cell viability) counter-screen; assay: cytotoxicity of Gli-SUFU antagonist hits, dose response, cytotoxicity control for Gli-SUFU antagonist project, cell-based, luminescence, uHTS hits (AID 651569);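 note: compound exposure lasted overnight before the viability readout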

Structure (SMILES)	IC50
Cc1nc2ncccn2c1-c1csc(Nc2ccc(O)cc2)n1	> 20 µM (inactive)
CCCN(CCC)CCNC(=O)c1cc2c(=O)n(C)c3ccccc3c2n1C	> 20 µM (inactive)
NC(=O)c1c(-c2ccc(Cl)cc2Cl)csc1NC(=O)Cc1ccccc1	16.8 µM
c1ccc(-c2c[n+]3c(n2-c2ccccc2)CCC3)cc1	> 20 µM (inactive)
c1ccc2c(c1)OCC(CNc1ncnc3sccc13)O2 (centres undefined)	> 20 µM (inactive)
Brc1ccc(-c2c[n+]3c(n2-c2ccccc2)SCC3)cc1	> 20 µM (inactive)
CCCCNc1c(-c2ccc(OC)c(Sc3ccc(OC)cc3)c2)nc2ccccn12	12.9 µM
Nc1ccc(Br)cc1-c1nc2ccccc2[nH]c1=O	> 20 µM (inactive)
CCOC(=O)N1CCN(C(=O)c2ccc(CSc3ccc(Cl)cc3)cc2)CC1	> 20 µM (inactive)
Cc1cc(/C=N/n2cnnc2)c(C)n1-c1ccc(OCc2ccccc2F)cc1	16.3 µM
CCN(CC(=O)Nc1c(F)cccc1F)C(=O)c1cc(S(=O)(=O)N(CC)CC)ccc1N1CCCCC1	9.1 µM
O=C(Nc1ccc(C(F)(F)F)cc1)C1CCN(S(=O)(=O)c2ccc(N3CCCC3=O)cc2)CC1	> 20 µM (inactive)
CNc1ccccc1C(C)(C)c1cc(-c2cccc(Br)c2)no1	> 20 µM (inactive)
NC(=O)c1ccccc1OCC(=O)N1CCC(Cc2ccccc2)CC1	> 20 µM (inactive)
CN(Cc1nccs1)C(=O)c1cc(COc2cccc3cnccc23)on1	> 20 µM (inactive)
CC(=O)c1ccc(N2CCN(c3ccc(C(F)(F)F)cn3)CC2)cc1	> 20 µM (inactive)
CCCCSc1nc2sc3c(c2c(=O)n1-c1ccc(C)cc1)CCN(C)C3	> 20 µM (inactive)
CC[N+]1=C(C)C(C)(C)c2cc(C)ccc21	> 20 µM (inactive)
Cc1ccc(NC(=O)COc2ccccc2C(N)=O)cc1S(=O)(=O)N1CCCCCC1	19.8 µM
CC1Sc2n(c3ccccc3[n+]2C)N=C1c1ccccc1 (centres undefined)	> 20 µM (inactive)
CCCn1c(SCC(=O)Nc2nc(-c3ccc(OC)cc3)cs2)nc2c1c(=O)n(C)c(=O)n2C	> 20 µM (inactive)
CCn1c(C)nc2cc(-c3nnc(-c4c(-c5ccccc5)noc4C)o3)ccc21	> 20 µM (inactive)
CCn1c(=NC(=O)CCS(=O)(=O)c2ccccc2)sc2cccc(OC)c21	> 20 µM (inactive)

Structure (SMILES)	IC50
COc1ccc(CN2CCC(C(=O)Nc3ccc(Oc4cccnc4)cc3)CC2)c(C)c1C	19.5 µM
Cc1nn(-c2ccc(NC(=O)c3ccncc3)cc2)c(C)c1Cl	> 20 µM (inactive)
CCOc1ccc(S(=O)(=O)NCc2ccncc2)cc1NC(=O)c1ccccc1	> 20 µM (inactive)
Cc1cc(C)nc(/N=C(\N)Nc2ccccc2-c2ccccc2)n1	18.4 µM
CCOC(=O)C1CCCN(S(=O)(=O)c2ccc(S(=O)(=O)N(CC)CC)cc2)C1 (centres undefined)	> 20 µM (inactive)
C=CCNC(=S)/N=c1/ccccn1Cc1ccccc1	> 20 µM (inactive)
CCOc1ccc(-c2nc(CSCC(=O)NCC3CCCO3)c(C)o2)cc1 (centres undefined)	> 20 µM (inactive)
Cc1cc(C)c(C)c(S(=O)(=O)N2CCN(c3ncnc4ccccc34)CC2)c1C	> 20 µM (inactive)
Cc1c(C(C)C)c(=O)n(-c2ccc(S(=O)(=O)NCc3ccccc3)cc2)n1C	> 20 µM (inactive)
CC(=O)Nc1ccc(S(=O)(=O)N(Cc2ccccc2)C(C)C)cc1	> 20 µM (inactive)
Cc1cccc(CCN2C(N(C)C)=NC[C@@H]2CC(C)C)c1	18.2 µM
COc1cc(C(=O)NC2CCN(C)CC2)ccc1Nc1ncc2c(n1)N(CCc1ccccc1)CCC(=O)N2C	> 20 µM (inactive)
Cc1ccc2c(c1)S/C(=C/c1ccc[n+](C)c1)N2CCO	> 20 µM (inactive)
CCOC(=O)c1ccc(NC(=O)Cn2cnc3cc(C)c(C)cc32)cc1	> 20 µM (inactive)
CCOC(=O)c1sc2nc(CC(=O)OC)nc(NCc3ccc(Cl)cc3)c2c1C	> 20 µM (inactive)
O=C(NCCNc1ccnc2cc(Cl)ccc12)c1ccccc1F	> 20 µM (inactive)
Cc1nc2ccccc2n1CC(=O)NC(C)C1CC2CCC1C2 (centres undefined)	> 20 µM (inactive)
CCOc1ccc(NS(=O)(=O)c2cccc(C(=O)N3CCN(C/C=C/c4ccccc4)CC3)c2)cc1	> 20 µM (inactive)
CCc1ccccc1NC(=S)N=Nc1c(O)n(C)c2ccc(S(=O)(=O)N3CCOCC3)cc12	> 20 µM (inactive)
FC(F)Oc1ccc(-c2c[n+]3c(n2-c2ccccc2)CCCCC3)cc1	> 20 µM (inactive)
CCn1cc[n+](C)c1P(c1ccccc1)c1ccccc1	> 20 µM (inactive)
Clc1ccc(-c2c[n+](Cc3ccc(Cl)cc3Cl)c3n2CCCCC3)cc1	9.17 µM
CN1/C(=C\C(=O)COC(=O)CNC(=O)c2ccc3ccccc3c2)C(C)(C)c2ccccc21	> 20 µM (inactive)

Structure (SMILES)	IC50
CC(=O)c1c(C)[nH]c(C(=O)OCC(=O)Nc2sc3c(c2C#N)CCCC3)c1C	> 20 µM (inactive)
CC1CCC(NC(=O)c2cccc(S(=O)(=O)N3CCN(c4ccccc4)CC3)c2)CC1 (centres undefined)	> 20 µM (inactive)
Brc1ccc(-[n+]2c(-c3ccccc3)cc(-c3ccccc3)cc2-c2ccccc2)cc1	> 20 µM (inactive)
C[N+]1(CC(=O)OC2CCCCCCCCCCC2)CCCC1	> 20 µM (inactive)
O=C(c1cccc(S(=O)(=O)N2CCN(c3ccccc3)CC2)c1)N1CCCC(C(F)(F)F)C1 (centres undefined)	> 20 µM (inactive)
O=C(c1cc2sccc2n1Cc1ccccc1)N1CCN(c2nc3ccccc3s2)CC1	> 20 µM (inactive)
O=S(=O)(c1ccc2c(c1)nc(COc1ccc(Cl)cc1)n2CC1CCCO1)N1CCOCC1 (centres undefined)	> 20 µM (inactive)
CCCCn1c(CN(C)Cc2ccccc2)nc2c1c(=O)n(C)c(=O)n2C	> 20 µM (inactive)
COCCNc1nc2c(c(=O)n(C)c(=O)n2C)n1Cc1cccc(C)c1	> 20 µM (inactive)
CC[N+](CC)(CC#Cc1ccccc1)CC#Cc1ccccc1	> 20 µM (inactive)
CCCn1c2c(c(=N)c3c1CCC3)CCCC2	> 20 µM (inactive)
Cc1sc2ncnc(NCc3cccs3)c2c1C	> 20 µM (inactive)
C/C(=N\NC(=O)C(=O)Nc1ccc(C)c(Cl)c1)c1ccncc1	> 20 µM (inactive)
Cc1cccc(C)c1NC(=S)N(CCN1CCCCCC1)Cc1ccco1	> 20 µM (inactive)
Cc1cc(/C=C2/SC(=S)N(c3ccc([N+](=O)[O-])cc3)C2=O)c(C)n1-c1cccnc1	> 20 µM (inactive)
COc1ccc(-c2c[n+](CC(=O)c3ccccc3)c3n2CCCCC3)cc1	> 20 µM (inactive)
CC1CN(S(=O)(=O)c2ccc(C(=O)Nc3nc(-c4cc5ccccc5o4)cs3)cc2)CC(C)O1 (centres undefined)	> 20 µM (inactive)
COc1cc(NS(=O)(=O)c2ccc(C)cc2C)cc(OC)c1OC	16 µM
Cc1ccc(C(=O)N2CCN3C(=O)c4ccccc4C23c2ccc(Cl)cc2)cc1 (centres undefined)	> 20 µM (inactive)
C=CCOc1nc2c(c(=O)n(C)c(=O)n2C)n1Cc1ccc(Cl)cc1Cl	> 20 µM (inactive)
O=C(N[C@@H]1C/C=C\C[C@@H](CC(=O)N(CCO)Cc2ccccc2)C(=O)NC[C@H](c2ccccc2)OC1=O)OCC1c2ccccc2-c2ccccc21	> 20 µM (inactive)
CN1/C(=C\C=N\NC(=O)c2ccc(O)cc2)C(C)(C)c2ccccc21	4.84 µM
CN(Cc1ccc(OC(F)F)cc1)C(=O)c1cccc(S(=O)(=O)N2CCN(Cc3ccccc3)CC2)c1	> 20 µM (inactive)
